Source: patent US9957264B2 (Merck Sharp & Dohme Corp., priority 2013, dated 2018)

What was measured:
[1] = target: JAK1 (recombinant purified GST-tagged catalytic domain) (Homo sapiens (Human), UniProt P23458); experiment: Jak Biochemical HTRF Assay (JAK1); details: [ATP] 31.8 μM
In short: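 Kinase reaction with biotinylated peptide substrate was started by ATP addition and run 120 min at room temperature, then quenched with EDTA stop buffer containing streptavidin-Dylight 650 and Eu-pY20 antibody. HTRF read 60 min later (665/615 nm ratio); percent inhibition vs log concentration fit to 4-parameter curve for IC50.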

[2] = target: JAK2 (recombinant purified GST-tagged catalytic domain) (Homo sapiens (Human), UniProt O60674); experiment: Jak Biochemical HTRF Assay (JAK2); details: [ATP] 8.5 μM
Sequence of JAK2 (recombinant purified GST-tagged catalytic domain) (O60674 849-1124): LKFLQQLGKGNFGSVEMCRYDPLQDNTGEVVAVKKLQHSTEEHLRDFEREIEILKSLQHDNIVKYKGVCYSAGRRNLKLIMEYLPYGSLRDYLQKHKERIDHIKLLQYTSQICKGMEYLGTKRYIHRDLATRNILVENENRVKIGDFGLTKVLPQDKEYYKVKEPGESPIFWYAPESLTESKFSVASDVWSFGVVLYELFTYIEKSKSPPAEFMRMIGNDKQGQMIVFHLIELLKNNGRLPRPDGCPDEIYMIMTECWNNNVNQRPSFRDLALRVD

Sequence of JAK1 (recombinant purified GST-tagged catalytic domain) (P23458 875-1153): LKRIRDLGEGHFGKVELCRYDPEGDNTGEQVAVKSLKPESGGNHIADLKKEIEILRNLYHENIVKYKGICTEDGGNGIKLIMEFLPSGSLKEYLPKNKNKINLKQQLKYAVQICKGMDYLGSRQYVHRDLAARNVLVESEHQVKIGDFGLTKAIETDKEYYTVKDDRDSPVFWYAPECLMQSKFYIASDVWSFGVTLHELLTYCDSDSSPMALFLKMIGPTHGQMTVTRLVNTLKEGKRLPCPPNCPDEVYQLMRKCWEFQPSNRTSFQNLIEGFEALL

Row | IC50 [1] [nM] | IC50 [2] [nM] | Structure (SMILES)
1 | 0.22 | 0.48 | CC(C)(C)S(=O)(=O)c1ccc(Nc2nn(C3(CC#N)CCCC3)c3cc[nH]c(=O)c23)cc1 [Example 5-122, 2-(1-(3-((4-(tert-butylsulfonyl)phenyl)amino)-4-oxo-4,5-dihydro-1H-pyrazolo[4,3-c]pyridin-1-yl)cyclopentyl)acetonitrile]
2 | 0.1 | 0.09 | Cc1cc(Nc2nn(C3(CC#N)CCN(c4ccc(C#N)cn4)CC3F)c3cc[nH]c(=O)c23)ccc1C(=O)N1CCSCC1 (stereo in doubt) [Example 15-6, 6-((3R,4R)-4-(cyanomethyl)-3-fluoro-4-(3-((3-methyl-4-(thiomorpholine-4-carbonyl)phenyl)amino)-4-oxo-4,5-dihydro-1H-pyrazolo[4,3-c]pyridin-1-yl)piperidin-1-yl)nicotinonitrile]
3 | 0.08 | 0.13 | CC(C)S(=O)(=O)c1ccc(Nc2nn(C3(CC#N)CCN(C(=O)C(C)(F)F)CC3)c3cc[nH]c(=O)c23)cc1 [Example 5-57, 2-(1-(2,2-difluoropropanoyl)-4-(3-((4-(isopropylsulfonyl)phenyl)amino)-4-oxo-4,5-dihydro-1H-pyrazolo[4,3-c]pyridin-1-yl)piperidin-4-yl)acetonitrile]
4 | 0.25 | 0.29 | CC1CCN1S(=O)(=O)c1ccc(Nc2nn([C@]3(CC#N)CCCOC3)c3cc[nH]c(=O)c23)cc1 (single isomer, unassigned) [Example 5-109, [(3S)-3-{3-[(4-{[(2S or 2R)-2-methylazetidin-1-yl]sulfonyl}phenyl)amino]-4-oxo-4,5-dihydro-1H-pyrazolo[4,3-c]pyridin-1-yl}tetrahydro-2H-pyran-3-yl]acetonitrile]
5 | 0.13 | 0.19 | Cc1cc(Nc2nn([C@]3(CC#N)CC[C@@H](C(=O)OC(C)(C)C)OC3)c3cc[nH]c(=O)c23)ccc1C(=O)N1CCOCC1 [Example 20-5, (2S,5S)-tert-butyl 5-(cyanomethyl)-5-(3-((3-methyl-4-(morpholine-4-carbonyl)phenyl)amino)-4-oxo-4,5-dihydro-1H-pyrazolo[4,3-c]pyridin-1-yl)tetrahydro-2H-pyran-2-carboxylate]
6 | 1.37 | 1.78 | CN(C)S(=O)(=O)c1ccc(Nc2nn(C3(CC#N)CCC(=O)CC3)c3cc[nH]c(=O)c23)cc1 [Example 18-39, 4-((1-(1-(cyanomethyl)-4-oxocyclohexyl)-4-oxo-4,5-dihydro-1H-pyrazolo[4,3-c]pyridin-3-yl)amino)-N,N-dimethylbenzenesulfonamide]
7 | 0.18 | 2.12 | CC(C)(C)OC(=O)N1CCC(CC#N)(n2nc(Nc3ccnc(F)c3)c3c(=O)[nH]ccc32)CC1 [Example 5-78, tert-butyl 4-(cyanomethyl)-4-{3-[(2-fluoropyridin-4-yl)amino]-4-oxo-4,5-dihydro-1H-pyrazolo[4,3-c]pyridin-1-yl}piperidine-1-carboxylate]
8 | 0.39 | 9.56 | CC(C)(C)N1Cc2cc(Nc3nn([C@]4(CC#N)CCOC4)c4cc[nH]c(=O)c34)ccc2S1(=O)=O (single isomer, unassigned) [Example 5-248, (R or S)-2-(3-(3-((2-(tert-butyl)-1,1-dioxido-2,3-dihydrobenzo[d]isothiazol-5-yl)amino)-4-oxo-4,5-dihydro-1H-pyrazolo[4,3-c]pyridin-1-yl)tetrahydrofuran-3-yl)acetonitrile]
9 | 0.24 | 3.73 | CN1Cc2cc(Nc3nn(C4(CC#N)CCCCC4)c4cc[nH]c(=O)c34)ccc2S1(=O)=O [Example 5-81, 2-(1-(3-((2-methyl-1,1-dioxido-2,3-dihydrobenzo[d]isothiazol-5-yl)amino)-4-oxo-4,5-dihydro-1H-pyrazolo[4,3-c]pyridin-1-yl)cyclohexyl)acetonitrile]
10 | 0.04 | 0.05 | CC(C)S(=O)(=O)c1ccc(Nc2nn([C@@]3(CC#N)CCCC[C@H]3F)c3cc[nH]c(=O)c23)cc1 [Example 5-87, {(1R,2R)-2-fluoro-1-[3-({4-[(1-methylethyl)sulfonyl]phenyl}amino)-4-oxo-4,5-dihydro-1H-pyrazolo[4,3-c]pyridin-1-yl]cyclohexyl}acetonitrile]
11 | 0.09 | 0.19 | CC1(C)C(=O)Nc2cc(Nc3nn([C@]4(CC#N)CCCOC4)c4cc[nH]c(=O)c34)ccc21 [Example 21-4, [(3S)-3-{3-[(3,3-dimethyl-2-oxo-2,3-dihydro-1H-indol-6-yl)amino]-4-oxo-4,5-dihydro-1H-pyrazolo[4,3-c]pyridin-1-yl}tetrahydro-2H-pyran-3-yl]acetonitrile]
12 | 0.14 | 0.17 | CC(C)(C)NC(c1ccc(Nc2nn([C@]3(CC#N)CCCOC3)c3cc[nH]c(=O)c23)cc1)C(F)(F)F (single isomer, unassigned) [Example 5-189, {(3S)-3-[3-({4-[(1R or 1S)-1-(tert-butylamino)-2,2,2-trifluoroethyl]phenyl}amino)-4-oxo-4,5-dihydro-1H-pyrazolo [4,3-c]pyridin-1-yl]tetrahydro-2H-pyran-3-yl}acetonitrile]
13 | 0.08 | 0.73 | Cc1nc2ccc(Nc3nn([C@]4(CC#N)CC[C@@H](C(=O)OC(C)(C)C)OC4)c4cc[nH]c(=O)c34)cc2s1 [Example 21-1, (2S,5S)-tert-butyl 5-(cyanomethyl)-5-(3-((2-methylbenzo[d]thiazol-6-yl)amino)-4-oxo-4,5-dihydro-1H-pyrazolo[4,3-c]pyridin-1-yl)tetrahydro-2H-pyran-2-carboxylate]
14 | 0.16 | 0.91 | CN(C)S(=O)(=O)c1ccc(Nc2nn(C3(CC#N)CCN(C(=O)O[C@H]4CCOC4)CC3)c3cc[nH]c(=O)c23)cc1 [Example 11-11, (S)-tetrahydrofuran-3-yl 4-(cyanomethyl)-4-(3-((4-(N,N-dimethylsulfamoyl)phenyl)amino)-4-oxo-4,5-dihydro-1H-pyrazolo[4,3-c]pyridin-1-yl)piperidine-1-carboxylate]
15 | 2.63 | 4.78 | CC(C)(C)N[C@@H](c1ccc(Nc2nn([C@@]3(CC#N)CCOC[C@H]3F)c3cc[nH]c(=O)c23)cc1)C(F)(F)F (single isomer, unassigned) [Example 5-268, 2-((3S,4S or 3R,4R)-4-(3-((4-((S or R)-1-(tert-butylamino)-2,2,2-trifluoroethyl)phenyl)amino)-4-oxo-4,5-dihydro-1H-pyrazolo[4,3-c]pyridin-1-yl)-3-fluorotetrahydro-2H-pyran-4-yl)acetonitrile]
16 | 2.1 | 0.7 | CC(C)(C)OC(=O)N1CCC(CC#N)(n2nc(Nc3cc(Cn4nccn4)cc(Cn4nccn4)c3)c3c(=O)[nH]ccc32)CC1 [Example 5-63, tert-butyl 4-(3-(3,5-bis((2H-1,2,3-triazol-2-yl)methyl)phenylamino)-4-oxo-4,5-dihydropyrazolo[4,3-c]pyridin-1-yl)-4-(cyanomethyl)piperidine-1-carboxylate]
17 | 1.97 | 21.6 | N#CCC1(n2nc(Nc3ccc(C(F)(F)F)cc3)c3c(=O)[nH]ccc32)CCC2(CC1)OCCO2 [Example 5-83, 2-(8-(4-oxo-3-((4-(trifluoromethyl)phenyl)amino)-4,5-dihydro-1H-pyrazolo[4,3-c]pyridin-1-yl)-1,4-dioxaspiro[4.5]decan-8-yl)acetonitrile]
18 | 0.24 | 0.31 | CCNC(c1ccc(Nc2nn([C@]3(CC#N)CC[C@@H](C(=O)OC(C)(C)C)OC3)c3cc[nH]c(=O)c23)cc1)C(F)(F)F (single isomer, unassigned) [Example 5-208, (2S,5S)-tert-butyl 5-(cyanomethyl)-5-(3-((4-((R or S)-1-(ethylamino)-2,2,2-trifluoroethyl)phenyl)amino)-4-oxo-4,5-dihydro-1H-pyrazolo[4,3-c]pyridin-1-yl)tetrahydro-2H-pyran-2-carboxylate]
19 | 0.15 | 0.21 | CC(C)(C)OC(=O)[C@@H]1CC[C@@](CC#N)(n2nc(Nc3ccc(C4(C(F)(F)F)CCNC4)cc3)c3c(=O)[nH]ccc32)CO1 (single isomer, unassigned) [Example 5-285, (2S,5S)-tert-butyl 5-(cyanomethyl)-5-(4-oxo-3-((4-((R or S)-3-(trifluoromethyl)pyrrolidin-3-yl)phenyl)amino)-4,5-dihydro-1H-pyrazolo[4,3-c]pyridin-1-yl)tetrahydro-2H-pyran-2-carboxylate]
20 | 0.22 | 0.37 | CC(C)(C)OC(=O)N1CCC(CC#N)(n2nc(Nc3ccc(S(=O)(=O)N4CCOCC4)cc3)c3c(=O)[nH]ccc32)CC1 [Example 5-294, tert-butyl 4-(cyanomethyl)-4-(3-((4-(morpholinosulfonyl)phenyl)amino)-4-oxo-4,5-dihydro-1H-pyrazolo[4,3-c]pyridin-1-yl)piperidine-1-carboxylate]
21 | 0.83 | 6.85 | CC(C)(C)N1Cc2cc(Nc3nn([C@]4(CC#N)CC[C@H](N5CC(F)C5)CC4)c4cc[nH]c(=O)c34)ccc2S1(=O)=O [Example 18-36]
22 | 0.12 | 0.35 | CC(C)(C)OC(=O)N1CC[C@@](CC#N)(n2nc(Nc3ccc(S(C)(=O)=O)cc3)c3c(=O)[nH]ccc32)[C@@H](F)C1 [Example 5-16, tert-butyl (3S,4S)-4-(cyanomethyl)-3-fluoro-4-(3-{[4-(methyl-sulfonyl)phenyl]amino}-4-oxo-4,5-dihydro-1H-pyrazolo[4,3-c]pyridin-1-yl)piperidine-1-carboxylate]
23 | 0.28 | 0.34 | CCOC(=O)C(C)(C)C(O)(c1ccc(Nc2nn([C@]3(CC#N)CCCOC3)c3cc[nH]c(=O)c23)cc1)C(F)(F)F (single isomer, unassigned) [Example 5-113, (S or R)-ethyl 3-(4-((1-((3S)-3-(cyanomethyl)tetrahydro-2H-pyran-3-yl)-4-oxo-4,5-dihydro-1H-pyrazolo[4,3-c]pyridin-3-yl)amino)phenyl)-4,4,4-trifluoro-3-hydroxy-2,2-dimethylbutanoate]
